Data taken from the RepoRT retention time repository (doi:10.1016/j.jchromb.2020.122105).

Legend:
Conditions in all cases: stereoisomer not certain
[1] = RP, Waters CORTECS T3, 100 × 2.1 mm, 2.7 µm, 0.15 mL/min, estimated dead time 1.5 min; A: water + 0.1% formic acid, pH 3; B: methanol + 0.1% formic acid, pH 3; gradient (min/%B) 0/0 1/0 6/5 30/100 35/100 35.1/0 40/0
[2] = RP, Waters ACQUITY UPLC BEH C18, 100 × 2.1 mm, 1.7 µm, 0.2 mL/min, estimated dead time 1.1 min; A: water + 0.025% formic acid + 20 mM ammonium acetate + 0.055% ammonium hydroxide, pH 7; B: methanol; gradient (min/%B) 0/5 5/5 25/100 30/100 30.1/5 35/5
[3] = RP, Waters ACQUITY UPLC BEH C18, 100 × 2.1 mm, 1.7 µm, 0.1 mL/min, estimated dead time 2.2 min; A: water + 0.045% formic acid + 0.11% ammonium hydroxide, pH 7; B: methanol; gradient (min/%B) 0/5 5/5 25/95 25.1/100 35/100 35.1/5 45/5
[4] = RP, Waters CORTECS T3, 100 × 2.1 mm, 2.7 µm, 0.3 mL/min, estimated dead time 0.73 min; A: water + 0.1% formic acid, pH 3; B: methanol + 0.1% formic acid, pH 3; gradient (min/%B) 0/0 1/0 6/5 30/100 35/100 35.1/0 40/0
[5] = RP, Waters CORTECS T3, 100 × 2.1 mm, 2.7 µm, 0.2 mL/min, estimated dead time 1.1 min; A: water + 0.045% formic acid + 0.11% ammonium hydroxide, pH 7; B: methanol; gradient (min/%B) 0/5 5/5 25/95 25.1/100 35/100 35.1/5 45/5
[6] = RP, Waters CORTECS T3, 100 × 2.1 mm, 2.7 µm, 0.25 mL/min, estimated dead time 0.88 min; A: water + 0.1% formic acid, pH 3; B: methanol + 0.1% formic acid, pH 3; gradient (min/%B) 0/0 1/0 6/5 30/100 35/100 35.1/0 40/0
[7] = RP, Waters ACQUITY UPLC BEH C18, 100 × 2.1 mm, 1.7 µm, 0.1 mL/min, estimated dead time 2.2 min; A: water + 0.1% formic acid, pH 3; B: methanol + 0.1% formic acid, pH 3; gradient (min/%B) 0/5 5/5 25/95 25.1/100 35/100 35.1/5 45/5
[8] = RP, Waters CORTECS T3, 100 × 2.1 mm, 2.7 µm, 0.3 mL/min, estimated dead time 0.73 min; A: water + 0.1% formic acid, pH 3; B: methanol + 0.1% formic acid, pH 3; gradient (min/%B) 0/5 5/5 25/95 25.1/100 35/100 35.1/5 45/5
[9] = RP, Waters CORTECS T3, 100 × 2.1 mm, 2.7 µm, 0.2 mL/min, estimated dead time 1.1 min; A: water + 0.1% formic acid, pH 3; B: methanol + 0.1% formic acid, pH 3; gradient (min/%B) 0/0 1/0 6/5 30/100 35/100 35.1/0 40/0
[10] = RP, Waters CORTECS T3, 100 × 2.1 mm, 2.7 µm, 0.3 mL/min, estimated dead time 0.73 min; A: water + 0.1% formic acid, pH 3; B: methanol + 0.1% formic acid, pH 3; gradient (min/%B) 0/5 5/5 25/100 30/100 30.1/5 35/5
[11] = RP, Waters CORTECS T3, 100 × 2.1 mm, 2.7 µm, 0.3 mL/min, estimated dead time 0.73 min; A: water + 0.1% formic acid, pH 3; B: methanol + 0.1% formic acid, pH 3; gradient (min/%B) 0/0 5/0 25/100 30/100 30.1/0 35/0
[12] = RP, Waters CORTECS T3, 100 × 2.1 mm, 2.7 µm, 0.1 mL/min, estimated dead time 2.2 min; A: water + 0.1% formic acid, pH 3; B: methanol + 0.1% formic acid, pH 3; gradient (min/%B) 0/5 5/5 25/95 25.1/100 35/100 35.1/5 45/5
[13] = RP, Waters ACQUITY UPLC BEH C18, 100 × 2.1 mm, 1.7 µm, 0.1 mL/min, estimated dead time 2.2 min; A: water + 0.1% formic acid, pH 3; B: methanol + 0.1% formic acid, pH 3; gradient (min/%B) 0/5 5/5 25/100 30/100 30.1/5 35/5
[14] = RP, Waters CORTECS T3, 100 × 2.1 mm, 2.7 µm, 0.1 mL/min, estimated dead time 2.2 min; A: water + 0.1% formic acid, pH 3; B: methanol + 0.1% formic acid, pH 3; gradient (min/%B) 0/0 1/0 6/5 30/100 35/100 35.1/0 40/0
[15] = RP, Thermo Scientific Hypercarb, 150 × 2.1 mm, 5 µm, 0.1 mL/min, estimated dead time 3.3 min; A: water + 0.1% formic acid, pH 3; B: methanol + 0.1% formic acid, pH 3; gradient (min/%B) 0/5 5/5 20/100 35/100 35.1/5 45/5
[16] = RP, Waters ACQUITY UPLC BEH C18, 100 × 2.1 mm, 1.7 µm, 0.1 mL/min, estimated dead time 2.2 min; A: water + 0.1% formic acid, pH 3; B: methanol + 0.1% formic acid, pH 3; gradient (min/%B) 0/5 5/5 25/95 25.1/100 35/100 35.1/5 45/5; remark: listed apart in the source
[17] = RP, Waters ACQUITY UPLC BEH C18, 100 × 2.1 mm, 1.7 µm, 0.2 mL/min, estimated dead time 1.1 min; A: water + 0.025% formic acid + 20 mM ammonium acetate + 0.055% ammonium hydroxide, pH 7; B: methanol; gradient (min/%B) 0/5 5/5 25/100 30/100 30.1/5 35/5; remark: listed apart in the source
[18] = RP, Waters CORTECS T3, 100 × 2.1 mm, 2.7 µm, 0.3 mL/min, estimated dead time 0.73 min; A: water + 0.1% formic acid, pH 3; B: methanol + 0.1% formic acid, pH 3; gradient (min/%B) 0/0 1/0 6/5 30/100 35/100 35.1/0 40/0; remark: listed apart in the source
[19] = RP, Waters CORTECS T3, 100 × 2.1 mm, 2.7 µm, 0.25 mL/min, estimated dead time 0.88 min; A: water + 0.1% formic acid, pH 3; B: methanol + 0.1% formic acid, pH 3; gradient (min/%B) 0/5 5/5 25/95 25.1/100 35/100 35.1/5 45/5
[20] = RP, Waters CORTECS T3, 100 × 2.1 mm, 2.7 µm, 0.2 mL/min, estimated dead time 1.1 min; A: water + 0.1% formic acid, pH 3; B: methanol + 0.1% formic acid, pH 3; gradient (min/%B) 0/5 5/5 25/95 25.1/100 35/100 35.1/5 45/5
[21] = HILIC, Merck SeQuant ZIC-HILIC, 150 × 2.1 mm, 5 µm, 0.75 mL/min, estimated dead time 0.44 min; A: water + 0.1% acetic acid + 10 mM ammonium acetate, pH 4; B: 5% water + 95% acetonitrile + 0.1% acetic acid + 10 mM ammonium acetate, pH 4; gradient (min/%B) 0/95 5/95 20/57 25/57 30/95 40/95
[22] = RP, Waters ACQUITY UPLC BEH C18, 100 × 2.1 mm, 1.7 µm, 0.2 mL/min, estimated dead time 1.1 min; A: water + 0.1% formic acid, pH 3; B: methanol + 0.1% formic acid, pH 3; gradient (min/%B) 0/5 5/5 25/100 30/100 30.1/5 35/5
[23] = RP, Waters CORTECS T3, 100 × 2.1 mm, 2.7 µm, 0.3 mL/min, estimated dead time 0.73 min; A: water + 0.1% formic acid, pH 3; B: methanol + 0.1% formic acid, pH 3; gradient (min/%B) 0/0 5/0 25/100 30/100 30.1/0 35/0; remark: listed apart in the source
[24] = RP, Waters CORTECS T3, 100 × 2.1 mm, 2.7 µm, 0.2 mL/min, estimated dead time 1.1 min; A: water + 0.1% formic acid, pH 3; B: methanol + 0.1% formic acid, pH 3; gradient (min/%B) 0/0 1/0 6/5 30/100 35/100 35.1/0 40/0; remark: listed apart in the source
[25] = RP, Waters ACQUITY UPLC BEH C18, 100 × 2.1 mm, 1.7 µm, 0.1 mL/min, estimated dead time 2.2 min; A: water + 0.1% formic acid, pH 3; B: methanol + 0.1% formic acid, pH 3; gradient (min/%B) 0/5 5/5 25/95 25.1/100 35/100 35.1/5 45/5; remark: listed apart in the source

Compound	LC retention time [1] [min]	LC retention time [2] [min]	LC retention time [3] [min]	LC retention time [4] [min]	LC retention time [5] [min]	LC retention time [6] [min]	LC retention time [7] [min]	LC retention time [8] [min]	LC retention time [9] [min]	LC retention time [10] [min]	LC retention time [11] [min]	LC retention time [13] [min]	other results
CCCCCCCCCC(=O)OCC(COP(=O)([O-])OCC[N+](C)(C)C)OC(=O)CCCCCCCCC (stereo not given) [1,2-DIDECANOYL-SN-GLYCERO-3-PHOSPHOCHOLINE]	30.9	26	29.7	28.7	26	29.2	29.7	25.3	29.8	24.3	–	–	–
O=c1cccc[nH]1 [2-HYDROXYPYRIDINE]	5.81	3.24	5.83	2.69	2.92	3.26	2.75	1.89	4.15	1.91	2.85	5.99	LC retention time [12]: 5.41 min; LC retention time [14]: 2.74 min
CN1CCC[C@H]1c1cccnc1 [(S)-NICOTINE]	1.78	11.2	16.1	–	11.7	1.09	–	–	1.34	–	0.89	2.74	LC retention time [15]: 4.86 min; LC retention time [16]: 2.66 min
Nc1ncnc2c1ncn2C1CC(O)C(COP(=O)(O)O)O1 (stereo not given) [DAMP]	1.78	–	–	0.92	–	1.09	2.72	0.9	1.34	–	–	2.74	LC retention time [17]: 1.36 min; LC retention time [18]: 0.92 min; LC retention time [19]: 1.08 min; LC retention time [20]: 2.67 min; LC retention time [21]: 12.9 min; LC retention time [22]: 1.38 min; LC retention time [23]: 0.89 min; LC retention time [24]: 1.35 min; LC retention time [25]: 2.7 min
